Where only a bound is given, the exact number is not on record here.

By melting point is commonly meant the temperature, or range, at which the solid turns liquid.

The molecule `Cc1cnccc1C(CCC(=O)O)C(=O)c1cccc(OCc2ccccc2)c1` (racemic) had a melting point of 55 to 57 °C.

On to `CC(=O)NCCCNC(=O)c1cc2c(ccc3cnn(C[C@H](C)N)c32)o1`, for which the melting point was 81 °C.

`CCCCNC(=O)c1ccc(Cl)c(-n2nc(CCCC)n(Cc3ccc(-c4ccccc4S(=O)(=O)NC(=O)c4ccccc4Cl)cc3)c2=O)c1`: the melting point was above 155 °C.

`CCOCC1OC(n2cc(C(F)(F)F)c(=O)[nH]c2=O)CC1O` (stereo not drawn) yielded a melting point of 188 to 190 °C.

Regarding `CCOC(=O)C(NC(=O)OCc1ccccc1)OCC` (stereo not drawn), the melting point was in the range of 66 to 68 °C.

`Cc1cccc(C(=O)NO)c1N(C)S(=O)(=O)c1ccc(OCCCNC(=O)c2cc3ccccc3o2)cc1` had a melting point of 148 to 150 °C.

In turn, `Cc1cc(Oc2ccc(Cc3ccccc3)cc2)cc(C)c1N` came in with a melting point of 61 to 63 °C.

For `Cc1nnc(NCCC2CCCN2C)c2cc3ccccn3c12` (stereo not drawn), the melting point is 169 °C.

As for `CC(O)CCNC(=O)C1CCC(Nc2nccc(-n3ncc4ccccc43)n2)CC1` (stereo not drawn), the melting point fell in the range of 203 to 204 °C.

On to `N#Cc1cnc2cc3c(cc2c1Nc1ccc(Oc2ccccc2)cc1)ncn3CCN1CCOCC1`, for which the melting point is above 260 °C.

Molecule `Cc1c2c(nc3ccccc13)CCN(C(=O)C(F)(F)F)CC2` returned a melting point of 147 °C.

`CCc1ccc(Nc2nnc(Cc3ccnc(O)c3)c3ccccc23)cc1Br` yielded a melting point of 133 to 135 °C.

Take `CCOP(=O)(Cc1ccc(NC(=O)/C=C/c2c(C)noc2-c2ccccc2)cc1)OCC`: the melting point lay within 155 to 156 °C.

As for `Nc1c(-c2csc(-c3ccncc3)n2)c(=O)[nH]c2ccccc12`, the melting point was above 250 °C.

`O=C(O)C(Sc1nc2ccccc2s1)c1ccccc1` (stereo not drawn) gave a melting point of 152 to 154 °C.

The molecule `Cc1cc(C2=NN=C(C=O)Cc3cc4c(cc32)OCO4)ccc1[N+](=O)[O-]` had a melting point of 188 to 191 °C.

Molecule `CCCCCCCCCCCCCCCCCCN(CCCCCCCCCCCCCCCCCC)Cc1ccc(CN(CCO)CCO)cc1` came in with a melting point of 49 to 50 °C.

Molecule `COCC(O)COc1cccc2c1CCNC2=O` (stereo not drawn) showed a melting point of 119 to 123 °C.

`C#Cc1cnc2c(C)cc(OC(SC)C(=O)NC(C)(C#N)CF)cc2c1` (stereo not drawn) showed a melting point of 180 to 182 °C.

As to `Nc1ccc(Sc2ccccn2)cn1`, the melting point is 121 °C.

The molecule `COc1ccc(Cl)c(Oc2c(C)nc(N3CCOCC3)nc2O)c1` returned a melting point of 252 °C.

`Nc1cccc(F)c1C(=O)NCC(=O)O` came in with a melting point of 188 to 192 °C.

For `Nc1nc(C(=Cc2cccc3ccccc23)C(=O)O)cs1`, the melting point amounted to 220 °C.

The molecule `CN1CCN(c2nc3sc4c(NCCN5CCOCC5)ncnc4c3c3c2CCC(C)(C)C3)CC1` returned a melting point of 150 to 151 °C.

`Cc1c(-c2ccnc(-c3ccc4c(n3)CCCC4)n2)ccc2ccccc12` showed a melting point of 156 to 158 °C.

Molecule `Nc1nc2n(c(=O)c1N=O)CCN2Cc1ccc(Cl)cc1` registered a melting point of 273 to 275 °C.

`C=C(C1=C(CCC(=O)O)C(=O)CC1=O)c1ccccc1` registered a melting point of 116 to 117 °C.

On to `CCCOCCOC(=O)C1=C(C)NC(C)=C(S(=O)(=O)N(C)CCOC)C1c1cccc([N+](=O)[O-])c1` (stereo not drawn), for which the melting point fell in the range of 67 to 70 °C.

In turn, `O=C(Nc1ccc(N2CCN(C(=O)C(F)(F)F)CC2)cc1)C(F)(F)F` had a melting point of 193 to 194 °C.

`CCOC(=O)C(NC(=O)c1ccccc1)C(C)C` (stereo not drawn): the melting point came to 74 °C.

With `CN1C=C(C(=O)O)C(=O)CC1c1ccc(Cl)cc1` (stereo not drawn), the melting point lay in the range of 205 to 206 °C.

The molecule `Cc1c(Cc2cccc(C(F)(F)F)c2)sc2c(-c3cc(C(=O)NCCO)ccn3)cccc12` came in with a melting point of 201 to 202 °C.

The molecule `CC(C)(C)c1nnc(N=C=O)s1` gave a melting point of 261 to 263 °C.

Molecule `CC1(C)CCc2c(sc3cc(OS(=O)(=O)Cc4ccccc4OC(F)(F)F)ccc3c2=O)C1` returned a melting point of 249 °C.

With `CN1CC[C@H](CP(=O)(O)O)C[C@@H]1C(=O)O` (relative stereo), the melting point lay in the range of 256 to 260 °C.

`NC(=Nc1cccc(CNCCC(=O)Nc2ccc3c(c2)CCN3Cc2cccc3ccccc23)c1)c1cccs1` displayed a melting point of 185 to 187 °C.

Take `CCC(=O)c1ccc(CCNS(=O)(=O)c2ccc(OC)cc2)cc1`: the melting point was determined as 107 °C.

Regarding `CC1(C)CON(Cc2ccc(N3C(=O)c4ccccc4C3=O)cc2Br)C1=O`, the melting point was 158 to 159 °C.

In the case of `N#CCCn1[nH]c(C#N)cc1=O`, the melting point fell in the range of 162 to 164 °C.

The molecule `Cc1cn(C(=O)OC(C)(C)C)c2ccc(Br)cc12` registered a melting point of 92 °C.

In turn, `O=C1CCC(N2C(=O)c3ccc(CNC(=O)c4ccc(Cl)c(Cl)c4)cc3C2=O)C(=O)N1` (stereo not drawn) registered a melting point of 253 to 255 °C.

The molecule `COC(=O)C1=CN(c2ccc(O)cc2)C(C2CC=CCC2)CC1=O` (stereo not drawn) gave a melting point of 155 to 157 °C.

With `O=C(O)c1ccccc1Oc1ccc(C(F)(F)F)cc1NS(=O)(=O)c1ccc(Cl)cc1`, the melting point is 164 °C.

Molecule `COc1cc2c(cc1OC)/C(=C\c1ccc(OP(=O)(O)O)cc1)C(=O)N2` yielded a melting point of 218 to 220 °C.

`Cc1cccc(C(N)c2ccc(OCCOc3ccc(C(N)c4cccc(C)c4)cc3)cc2)c1` (stereo not drawn) returned a melting point of 113 to 115 °C.

Molecule `CCCn1cnc2c1c(=O)n(CCCC(C)(C)O)c(=O)n2C` gave a melting point of 96 to 98 °C.

Molecule `COC(OC)C(CC#N)C(C)(C)S(=O)(=O)c1ccc(C)cc1` (stereo not drawn) displayed a melting point of 99 °C.

For `O=C(O)c1nc(Oc2cccc(C(F)(F)F)c2)ccc1Cl`, the melting point was 90 to 92 °C.

Regarding `CC(CC1(c2ccccc2)C=CCC=C1)OS(C)(=O)=O` (stereo not drawn), the melting point lay within 51 to 53 °C.

Molecule `CCn1cc(C2(c3cccc(-c4cccnc4F)c3)N=C(N)N(C)C2=O)cc1CO` (stereo not drawn) had a melting point of 170 to 172 °C.

`Cc1cc(O)c2c(c1)CCCC2`: the melting point was 95 to 96 °C.

With `Sc1nnc(-c2ccc3ncsc3c2)o1`, the melting point was in the range of 274 to 275 °C.

As for `CCC(=O)Oc1ccc(NCc2c(F)c(F)c(C(F)(F)F)c(F)c2F)cc1C(=O)O`, the melting point lay within 188 to 191 °C.

With `CCc1noc(-c2c[nH]c(-c3cccc(Oc4ccc(Br)cn4)c3)n2)n1`, the melting point fell in the range of 141 to 142 °C.

For the molecule `Fc1cccc(-c2nc(-c3ccccn3)no2)c1`, the melting point lay in the range of 88 to 98 °C.

In the case of `CCCc1c(OCc2ccc(C(=O)NCCCCc3cccnc3)c(OCC)c2)ccc(C(C)=O)c1O`, the melting point was 92 to 93 °C.

`CC12CC3CC(C)(C1)CC(C(=O)NCc1cccs1)(C3)C2` gave a melting point of 101 to 103 °C.

Consider `CCCCc1ncc(CC(Cc2ccccc2)C(=O)OC)n1Cc1ccccc1Cl` (stereo not drawn), for which the melting point was in the range of 118 to 120 °C.

Regarding `COC(=O)c1cc(C(C)OC(C)C)c(C(F)(F)F)cc1N` (stereo not drawn), the melting point fell in the range of 87 to 90 °C.

Take `O=Cc1ccc(OC(F)F)c2oc3ccc([N+](=O)[O-])cc3c12`: the melting point fell in the range of 245 to 248 °C.

In the case of `NS(=O)C12CC3CC(CC(C3)C1)C2` (stereo not drawn), the melting point is 139 to 141 °C.

`O=C(c1cccs1)c1cccc2c1CCC2C(=O)O` (stereo not drawn) came in with a melting point of 122 to 124 °C.

Regarding `COc1ccc2cc(C3=CCC4(CC3)CCN(C)CC4)ccc2c1`, the melting point is 147 to 150 °C.
